In patent EP1027361B1, “6,11-BRIDGED ERYTHROMYCIN DERIVATIVES” (Abbott Laboratories, priority 1997, dated 1999):

Legend:
Assay in all cases: in vitro antibacterial activity, agar dilution MIC
Type in all cases: cell-based
[1] = system: Staphylococcus aureus ATCC 6538P; parameters: unit not given here; settings: organism code AA, BHI agar, 35-37 °C, 20 to 24 hours
Method: (§1) Erythromycin A was used for this purpose.
(§2) After incubation, each plate was visually inspected.

[2] = system: Streptococcus pyogenes EES61; parameters: unit not given here; settings: organism code LL, BHI agar, 35-37 °C, 20 to 24 hours
Method: as §1, §2

[3] = system: Streptococcus agalactiae CMX 508; parameters: unit not given here; settings: organism code KK, BHI agar, 35-37 °C, 20 to 24 hours
Method: as §1, §2

[4] = system: Streptococcus bovis A-5169; parameters: unit not given here; settings: organism code JJ, BHI agar, 35-37 °C, 20 to 24 hours
Method: as §1, §2

[5] = system: Streptococcus Pheumoniae ATCC6303; parameters: unit not given here; settings: organism code XX, BHI agar, 35-37 °C, 20 to 24 hours
Method: as §1, §2

[6] = system: Staphylococcus aureus A5177; parameters: unit not given here; settings: organism code BB, BHI agar, 35-37 °C, 20 to 24 hours
Summary of the method: (§3)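 Twelve successive aqueous dilutions of compound were mixed into Brain Heart Infusion agar plates, each spotted by replicator with 1:100 culture dilutions (1:10 for slow growers such as Streptococcus). MIC was the lowest concentration giving no growth, slight haze or sparse isolated colonies versus drug-free control.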

[7] = system: Mycobacterium smegmatis ATCC 114; parameters: unit not given here; settings: organism code UU, BHI agar, 35-37 °C, 20 to 24 hours
Summary of the method: as §3

[8] = system: Streptococcus Pheumoniae GYR 1171; settings: organism code YY, BHI agar, 35-37 °C, 20 to 24 hours
Method: as §1, §2

[9] = system: Staphylococcus aureus CMX 553; settings: organism code FF, BHI agar, 35-37 °C, 20 to 24 hours
Method: as §1, §2

[10] = system: Micrococcus luteus ATCC 4698; settings: organism code PP, BHI agar, 35-37 °C, 20 to 24 hours
Method: as §1, §2

[11] = system: Staphylococcus aureus CMX 642A; settings: organism code DD, BHI agar, 35-37 °C, 20 to 24 hours
Method: as §1, §2

[12] = system: Enterococcus faecium ATCC 8043; settings: organism code II, BHI agar, 35-37 °C, 20 to 24 hours
Method: as §1, §2

[13] = system: Streptococcus Pheumoniae 5649; settings: organism code ZZA, BHI agar, 35-37 °C, 20 to 24 hours
Method: as §1, §2

[14] = system: Staphylococcus aureus NCTC10649M; settings: organism code EE, BHI agar, 35-37 °C, 20 to 24 hours
Method: as §1, §2

[15] = system: Escherichia coli JUHL; settings: organism code QQ, BHI agar, 35-37 °C, 20 to 24 hours
Method: as §1, §2

[16] = system: Micrococcus luteus ATCC 9341; settings: organism code OO, BHI agar, 35-37 °C, 20 to 24 hours
Method: as §1, §2

[17] = system: Nocardia Asteroides ATCC9970; settings: organism code VV, BHI agar, 35-37 °C, 20 to 24 hours
Method: as §1, §2

[18] = system: Haemophilis Influenzae DILL AMP R; settings: organism code WW, BHI agar, 35-37 °C, 20 to 24 hours
Method: as §1, §2

[19] = system: Staphylococcus epidermidis 3519; settings: organism code HH, BHI agar, 35-37 °C, 20 to 24 hours
Method: as §1, §2

[20] = system: Escherichia coli SS; settings: organism code RR, BHI agar, 35-37 °C, 20 to 24 hours
Method: as §1, §2

[21] = system: Escherichia coli DC-2; settings: organism code SS, BHI agar, 35-37 °C, 20 to 24 hours
Summary of the method: as §3

[22] = system: Staphylococcus aureus A-5278; settings: organism code CC, BHI agar, 35-37 °C, 20 to 24 hours
Summary of the method: as §3

[23] = system: Candida albicans CCH 442; settings: organism code TT, BHI agar, 35-37 °C, 20 to 24 hours
Summary of the method: as §3

[24] = system: Staphylococcus aureus 1775; settings: organism code GG, BHI agar, 35-37 °C, 20 to 24 hours
Summary of the method: as §3

[25] = system: Streptococcus pyogenes PIU 2548; settings: organism code NN, BHI agar, 35-37 °C, 20 to 24 hours
Summary of the method: as §3

[26] = system: Streptococcus Pheumoniae 5979; settings: organism code ZZ, BHI agar, 35-37 °C, 20 to 24 hours
Summary of the method: as §3

[27] = system: Streptococcus pyogenes 930; settings: organism code MM, BHI agar, 35-37 °C, 20 to 24 hours
Summary of the method: as §3

## CC[C@H]1OC(=O)[C@H](C)C(=O)[C@H](C)[C@@H](O[C@@H]2O[C@H](C)C[C@H](N(C)C)[C@H]2O)[C@@]2(C)C[C@@H](C)C(=O)[C@H](C)[C@H]3N(CCC=CCO2)C(=O)O[C@]13C [Example 18, Compound of Formula (II), R^p is H, m is 2, A is absent, B is absent, D is absent, E is-(CH2)r-CH=CH-, r is 0, n is 1]
[1]
  minimum inhibitory concentration (MIC): 0.78
[2]
  minimum inhibitory concentration (MIC): 0.2
[3]
  minimum inhibitory concentration (MIC): 0.2
[4]
  minimum inhibitory concentration (MIC): 0.2
[5]
  minimum inhibitory concentration (MIC): 1
[6]
  minimum inhibitory concentration (MIC): 0.78
[7]
  minimum inhibitory concentration (MIC): 12.5
[8]
  minimum inhibitory concentration (MIC): 0.5
[9]
  minimum inhibitory concentration (MIC): 0.78
[10]
  minimum inhibitory concentration (MIC): 0.78
[11]
  minimum inhibitory concentration (MIC): 0.78
[12]
  minimum inhibitory concentration (MIC): 0.39
[13]
  minimum inhibitory concentration (MIC): 2
[14]
  minimum inhibitory concentration (MIC): 0.78
[15]
  minimum inhibitory concentration (MIC): >100
[16]
  minimum inhibitory concentration (MIC): 0.39
[17]
  minimum inhibitory concentration (MIC): 0.78
[18]
  minimum inhibitory concentration (MIC): 128
[19]
  minimum inhibitory concentration (MIC): 1.56
[20]
  minimum inhibitory concentration (MIC): 1.56
[21]
  minimum inhibitory concentration (MIC): >100
[22]
  minimum inhibitory concentration (MIC): >100
[23]
  minimum inhibitory concentration (MIC): >100
[24]
  minimum inhibitory concentration (MIC): >100
[25]
  minimum inhibitory concentration (MIC): 1.56
[26]
  minimum inhibitory concentration (MIC): >128
[27]
  minimum inhibitory concentration (MIC): >100
